Data: patent publication US20220202884A1 (SENECA THERAPEUTICS, INC., priority 2019, published 2022)
Structures can show the parent of a compound that is named as a salt.

Experiments:
[1] = test system: U2OS cells (osteosarcoma); experiment: SVV mediated killing of drug-pretreated U2OS cells; type: cell-based; conditions: U2OS cells pretreated for 24 hours with compound, FIG. 3
Description: U2OS cells (osteosarcoma) were pretreated for 24 hours in pharmaceutical compounds to disrupt innate antiviral responses to allow increased viral mediated killing.

[2] = test system: HCT-116 cells (Colorectal cancer cells); experiment: SVV mediated killing of drug-pretreated HCT-116 cells; type: cell-based, human; conditions: HCT-116 cells pretreated for 24 hours with compound, FIG. 4
Description: HCT-116 cells (Colorectal cancer cells) were pretreated for 24 hours in pharmaceutical compounds to disrupt innate antiviral responses to allow increased viral mediated killing.

[3] = test system: triple negative breast cancer cells (BT-549); experiment: SVV infection, replication and killing of drug-treated BT-549 cells; type: cell-based; conditions: FIG. 2
Source text: (§1) In certain instances, infection with Seneca Valley Virus can be toxic to triple negative breast cancer cell lines. In these cases, it is necessary to reduce innate antiviral responses through the use of certain approved pharmaceutical compounds (see FIG. 1, FIG. 2 and FIG. 5).

[4] = test system: HTB-126 cells (triple negative breast cancer, TNBC); experiment: Seneca Valley Virus (SVV) mediated killing of drug-pretreated HTB-126 cells; type: cell-based
Source text: Standard deviations of replicates are presented as error bars (VP/cell with 1 PFU or TCID50 unit per 100 VPs).
as §1

| SMILES | Seneca Valley Virus mediated cell killing [1] | Seneca Valley Virus mediated cell killing [2] | Seneca Valley Virus mediated cell killing ([2]; listed as dimethyl fumarate) | susceptibility to virus mediated killing by SVV [3] | Seneca Valley Virus mediated cell killing ([2]; listed as vorinostat) | enhancement of SVV replication and cell death ([4]; FIG. 5, TNBC cell lines, 1PFU/cell of SVV and 0.8 uM of Tofacintinib) | susceptibility to virus mediated killing by SVV ([4]; HTB-126 cells, FIG. 1 (pretreated 24 hours in 12.5 micromolar tofacitinib, then 50 VP of SVV/cell) and FIG. 5) | Seneca Valley Virus mediated cell killing ([1]; listed as tofacitinib) | Seneca Valley Virus mediated cell killing ([2]; listed as tofacitnib) |
| --- | --- | --- | --- | --- | --- | --- | --- | --- | --- |
| COC(=O)/C=C/C(=O)OC [Dimethyl fumarate, dimethyl fumarate] | increased Seneca Valley Virus mediated cell killing | mainly caused by MAC inhibitors (Panobinostat or Vorinostat) instead of the JAK inhibitors | smaller effect | – | – | – | – | – | – |
| O=C(CCCCCCC(=O)Nc1ccccc1)NO [Vorinostat] | – | increase in cell killing was mainly caused by MAC inhibitors | – | modified and favored the susceptibility to virus mediated killing by SVV | increased Seneca Valley Virus mediated cell killing | – | – | – | – |
| C[C@@H]1CCN(C(=O)CC#N)C[C@@H]1N(C)c1ncnc2[nH]ccc12 [Tofacitinib] | augmented SVV mediated cell killing | mainly caused by MAC inhibitors (Panobinostat or Vorinostat) instead of the JAK inhibitors | – | modified and favored the susceptibility to virus mediated killing by SVV | – | substantial enhancement of SVV replication in TNBC cell lines and cell death | modified and favored the susceptibility to virus mediated killing by SVV | increased Seneca Valley Virus mediated cell killing | smaller effect |
